This is an account of results in PubChem BioAssay (NCI).

Assay in all cases: DTP human tumour cell line panel, 48 h
Test [1] relates to 786-0 renal.
Test [2] concerns BT-549 breast.
Test [3] concerns EKVX NSCLC.
Test [4] has as its system M14 melanoma.
Test [5] has as its system NCI-H460 lung.
Test [6] deals with NCI-H522 lung.
Test [7] has as its system RXF 393 renal.
The test system of test [8] is SF-268 CNS.
For test [9], the system named is SNB-19 CNS.
The test system of test [10] is U251 CNS.

“And” between values parts separate entries of the source, which are not always exact repeats. Equal entries are not always repeated.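 Exposure lasted 48 hours, with cells grown in 96-well plates and compounds tested at five concentrations. At the GI50, growth is halved. At the TGI there is no net growth.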 Where only a bound is given, the exact number is not on record here.

For the compound `COc1cc(OC2OC(COC(=O)c3cc(O)c(O)c(O)c3)C(O)C(O)C2O)ccc1O` (stereo unspecified), the TGI in test [1], in test [2], in [3], in test [4], in [5] and in [6] was above 100 µM in each case. For the same compound, the total growth inhibition concentration (TGI) in [7], in [8], in [9] and in test [10] was above 100 µM each time.
As to `Cc1cc2oc(C)c(S(=O)(=O)NC(=O)Nc3ccc(Cl)cc3)c(=O)c2c(=O)o1`, the TGI in [1], in test [2], in test [3], in [4], in [5] and in test [6] was above 100 µM throughout. The TGI in test [7], in test [8], in test [9] and in test [10] was above 100 µM throughout.
As to `N=c1oc2ccccc2cc1-c1nc2ccccc2c(=O)[nH]1`, the TGI in test [1], in [2], in test [3], in [4], in test [5] and in test [6] was above 100 µM throughout. Also, the TGI in test [7], in test [8], in test [9] and in test [10] was above 100 µM each time.
In the case of `COc1c(C)c(C/C=C(\C)CC/C=C(\C)CC/C=C(\C)CCC=C(C)C)c(OC)c2ccccc12`, the concentration for total growth inhibition (TGI) in test [1], in test [2], in test [3], in [4], in test [5] and in test [6] was above 100 µM each time. For the same compound, the TGI in test [7], in test [8], in test [9] and in [10] was above 100 µM in each case.
For `CCOC(=O)C(NC(=O)CC)(Nc1ccc(F)c(Cl)c1)C(F)(F)F` (stereo unspecified), the TGI in test [1], in [2], in [3], in test [4], in test [5] and in test [6] was above 100 µM throughout. The TGI in test [7], in test [8], in test [9] and in test [10] was above 100 µM each time.
As for `COCC12CCC(OC)C34C5CC6(O)C(OC)CC(OC(C)=O)(C5C6OC(=O)c5ccccc5)C(C(OC)C13)C4N(C)C2` (stereo unspecified), the concentration for total growth inhibition (TGI) in test [1], in test [2], in test [3], in [4], in test [5] and in test [6] was above 100 µM throughout. In addition, the TGI in [7], in [8], in [9] and in test [10] was above 100 µM each time.
With `COC12C=CC(C=C1C#N)CC2` (stereo unspecified) (tested in a mixture with another compound), the TGI in [1], in test [2], in test [3], in test [4], in test [5] and in test [6] was above 100 µM throughout. The TGI in [7], in test [8], in test [9] and in [10] was above 100 µM throughout.
Turning to `Cc1cc(N2CCCC2)c([N+](=O)[O-])cc1[N+](=O)[O-]`, the TGI in test [1], in [2], in test [3], in test [4], in [5] and in test [6] was above 100 µM throughout. The TGI in test [7], in test [8], in test [9] and in [10] was above 100 µM in each case.
As to `COC(=O)C1=CON2C3CC4CC(C3)CC(C4)C12C` (stereo unspecified), the TGI in test [1], in test [2], in test [3], in test [4], in [5] and in [6] was above 100 µM each time. For the same compound, the TGI in test [7], in test [8], in [9] and in test [10] was above 100 µM in each case.
`CCN(CC)CCOC(=O)Cc1cccc2c(=O)cc(-c3ccccc3)oc12`: the TGI in test [1] was 62.5 µM; in test [2], 61.7 µM; in [3] it was 62.5 µM; in test [4], 62.5 µM; in [5], 62.5 µM and > 111 µM; in test [6], 62.5 µM and > 154 µM. Also, the TGI was 58.7 µM and > 144 µM in test [7]; 62.5 µM and > 165 µM in [8]; 62.5 µM and > 211 µM in test [9]; 62.5 µM and > 121 µM in test [10]. Further, the GI50 in [3] was 25.2 µM; in [5], 36.4 µM; in test [6] it was 72.8 µM; in test [7], 52.6 µM; in test [9], 112 µM; in test [10], 57.9 µM.
Consider `COc1ccc([C@]23CCN4COC[C@@H]([C@H]42)C2(CC3)OCC(C)(C)CO2)cc1OC`, for which the TGI in [1], in test [2], in test [3], in test [4], in test [5] and in [6] was above 100 µM throughout. In addition, the TGI in test [7], in test [8], in [9] and in [10] was above 100 µM each time.
`O=C1CS(=O)(=O)C(c2cccc(Oc3ccccc3)c2)N1c1ccccc1` (stereo unspecified): the TGI in test [1] was found to be 37.8 µM; in test [2], 49.1 µM; in [3] it was 54.2 µM; in test [4], 38.7 µM; in test [5] it was 38.4 µM; in test [6], 47.9 µM. For the same compound, the TGI is 38.7 µM in test [7], 75.8 µM in [8], above 100 µM in test [9] and 33.3 µM in test [10].
As for `CCOC(=O)C(=O)CC(=O)C1=C(c2ccccc2OC)CC(c2cccs2)=CC1=O`, the TGI in test [1], in [2], in test [3], in test [4], in [5] and in test [6] was above 100 µM throughout. Further, the TGI in test [7], in test [8], in test [9] and in [10] was above 100 µM throughout.
With `COC1(c2cccs2)c2ccccc2C(OC)(c2cccs2)c2ccccc21` (stereo unspecified), the TGI in [1], in [2], in [3], in test [4], in test [5] and in test [6] was above 100 µM in each case. Also, the TGI in test [7], in [8], in test [9] and in test [10] was above 100 µM each time.
With `CCCC(=O)NC(Nc1ccc(F)cc1)(C(F)(F)F)C(F)(F)F`, the TGI in test [1], in test [2], in test [3], in test [4], in [5] and in test [6] was above 100 µM each time. The TGI in [7], in [8], in test [9] and in test [10] was above 100 µM each time.
Take `CCCc1nnc2sc(COc3cc(Cl)c(OCc4nn5c(CCC)nnc5s4)cc3Cl)nn12`: the total growth inhibition concentration (TGI) was above 100 µM in test [1]; above 100 µM in test [2]; 82.2 µM in test [3]; above 100 µM in [4]; above 100 µM in test [5]; above 100 µM in test [6]. In addition, the TGI in test [7], in [8], in [9] and in test [10] was above 100 µM throughout.

As a reminder, the TGI is the concentration at which net growth stops. Read a high TGI as lower sensitivity of the cells. For orientation: GI50 means the concentration at which growth is held to half of that of the control.
